Patent US8364409B2 (priority 2006, dated 2013)

Test system: sensitive M bovis strain
Assay type: cell-based, Mycobacterium bovis BCG

NNC(=O)c1ccncc1 [INH, isoniazid]
stress response (Impedance Response profile): varies with the drug concentration
